Laboratory results reported in ChEMBL document CHEMBL5316263, “Structure-Based Discovery of Selective Histone Deacetylase 8 Degraders with Potent Anticancer Activity” (J Med Chem, 2023).
One block for each compound: values may come before it. Calls of active or inactive are those of the source. No cut-off for these calls is given here.

How the values were obtained:
[1] = target: T1, Protein cereblon/Histone deacetylase 8 (Homo sapiens) (UniProt Q9BY41+Q96SW2); assay: Protac activity at CRBN/HDAC8 in human A549 cells assessed as degradation of HDAC8 at 2 uM measured after 20 hrs by Western blot analysis relative to control; format: cell-based
T1 sequence (Q96SW2 whole entry, looked up, one chain of several): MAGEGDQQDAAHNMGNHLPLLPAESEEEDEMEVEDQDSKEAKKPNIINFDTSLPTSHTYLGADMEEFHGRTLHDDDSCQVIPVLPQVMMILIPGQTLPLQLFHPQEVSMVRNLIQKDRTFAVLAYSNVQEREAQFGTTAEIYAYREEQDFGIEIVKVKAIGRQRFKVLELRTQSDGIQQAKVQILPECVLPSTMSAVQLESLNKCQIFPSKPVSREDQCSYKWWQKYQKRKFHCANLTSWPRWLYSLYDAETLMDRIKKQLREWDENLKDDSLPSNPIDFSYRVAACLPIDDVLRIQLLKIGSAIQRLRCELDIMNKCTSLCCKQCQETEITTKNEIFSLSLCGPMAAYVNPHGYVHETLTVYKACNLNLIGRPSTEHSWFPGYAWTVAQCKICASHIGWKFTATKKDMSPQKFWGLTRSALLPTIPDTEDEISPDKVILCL

[2] = target: T1, Protein cereblon/Histone deacetylase 8 (Homo sapiens); assay: Protac activity at CRBN/HDAC8 in human A549 cells assessed as degradation of HDAC8 at 200 nM measured after 20 hrs by Western blot analysis relative to control; format: cell-based
[3] = target: T2, von Hippel-Lindau disease tumor suppressor/Histone deacetylase 8 (Homo sapiens) (UniProt Q9BY41+P40337); assay: Protac activity at VHL/HDAC8 in human A549 cells assessed as degradation of HDAC8 at 200 nM measured after 20 hrs by Western blot analysis relative to control; format: cell-based
T2 sequence (P40337 whole entry, looked up, one chain of several): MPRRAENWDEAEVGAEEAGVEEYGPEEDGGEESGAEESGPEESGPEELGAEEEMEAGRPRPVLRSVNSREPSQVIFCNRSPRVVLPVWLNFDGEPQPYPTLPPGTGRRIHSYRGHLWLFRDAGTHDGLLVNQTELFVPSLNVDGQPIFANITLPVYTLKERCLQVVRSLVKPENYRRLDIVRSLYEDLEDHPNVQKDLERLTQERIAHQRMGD

[4] = target: T2, von Hippel-Lindau disease tumor suppressor/Histone deacetylase 8 (Homo sapiens); assay: Protac activity at VHL/HDAC8 in human A549 cells assessed as degradation of HDAC8 at 2 uM measured after 20 hrs by Western blot analysis relative to control; format: cell-based
A549 [5] = assay: Induction of apoptosis in human A549 cells assessed as late apoptotic cells at 20 uM measured after 72 hrs by annexin V-FITC staining based flow cytometry (reference value: 0.20%); format: functional
A549 [6] = assay: Induction of apoptosis in human A549 cells assessed as viable cells at 30 uM measured after 72 hrs by annexin V-FITC staining based flow cytometry (reference value: 99.1%); format: functional; settings: read-out: Activity
A549 [7] = assay: Induction of apoptosis in human A549 cells assessed as late apoptotic cells at 40 uM measured after 72 hrs by annexin V-FITC staining based flow cytometry (reference value: 0.20%); format: functional
A549 [8] = assay: Antiproliferative activity against human A549 cells assessed as inhibition of cell growth measured after 72 hrs under irradiation by CCK-8 method; format: functional, cell-based; settings: A549, light or radiation study
A549 [9] = assay: Induction of apoptosis in human A549 cells assessed as early apoptotic cells at 10 uM measured after 72 hrs by annexin V-FITC staining based flow cytometry (reference value: 0.13%); format: functional
A549 [10] = assay: Induction of apoptosis in human A549 cells assessed as viable cells at 20 uM measured after 72 hrs by annexin V-FITC staining based flow cytometry (reference value: 99.1%); format: functional; settings: read-out: Activity
A549 [11] = assay: Induction of apoptosis in human A549 cells assessed as early apoptotic cells at 30 uM measured after 72 hrs by annexin V-FITC staining based flow cytometry (reference value: 0.13%); format: functional
[12] = target: T3, Histone deacetylase 8 (Homo sapiens) (UniProt Q9BY41); assay: Induction of degradation in HDAC8 in human A549 cells at 2 microM measured after 20 hrs by Western blot analysis relative to control; format: cell-based
T3 sequence (whole entry): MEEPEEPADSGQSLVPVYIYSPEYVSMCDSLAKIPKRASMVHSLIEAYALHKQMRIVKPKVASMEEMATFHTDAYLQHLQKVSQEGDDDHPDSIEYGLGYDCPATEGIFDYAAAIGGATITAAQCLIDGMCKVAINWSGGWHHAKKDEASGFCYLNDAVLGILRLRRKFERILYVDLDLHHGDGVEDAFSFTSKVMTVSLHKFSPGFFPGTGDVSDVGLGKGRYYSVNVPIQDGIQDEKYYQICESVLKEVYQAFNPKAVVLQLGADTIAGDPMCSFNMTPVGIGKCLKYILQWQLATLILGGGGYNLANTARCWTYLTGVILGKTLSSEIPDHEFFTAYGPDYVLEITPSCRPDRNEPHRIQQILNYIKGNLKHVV

A549 [13] = assay: Induction of apoptosis in human A549 cells assessed as early apoptotic cells at 40 uM measured after 72 hrs by annexin V-FITC staining based flow cytometry (reference value: 0.13%); format: functional
A549 [14] = assay: Antiproliferative activity against human A549 cells assessed as inhibition of cell growth measured after 72 hrs by CCK-8 method; format: functional, cell-based; settings: A549, 72 h
A549 [15] = assay: Induction of apoptosis in human A549 cells assessed as necrotic cells at 40 uM measured after 72 hrs by annexin V-FITC staining based flow cytometry (reference value: 0.005%); format: functional
A549 [16] = assay: Induction of apoptosis in human A549 cells assessed as necrotic cells at 10 uM measured after 72 hrs by annexin V-FITC staining based flow cytometry (reference value: 0.005%); format: functional
A549 [17] = assay: Induction of apoptosis in human A549 cells assessed as necrotic cells at 30 uM measured after 72 hrs by annexin V-FITC staining based flow cytometry (reference value: 0.005%); format: functional
A549 [18] = assay: Induction of apoptosis in human A549 cells assessed as viable cells at 10 uM measured after 72 hrs by annexin V-FITC staining based flow cytometry (reference value: 99.1%); format: functional; settings: read-out: Activity
[19] = target: T3, Histone deacetylase 8 (Homo sapiens); assay: Induction of degradation in HDAC8 in human A549 cells at 200 nM measured after 20 hrs by Western blot analysis relative to control; format: cell-based
A549 [20] = assay: Induction of apoptosis in human A549 cells assessed as viable cells at 40 uM measured after 72 hrs by annexin V-FITC staining based flow cytometry (reference value: 99.1%); format: functional; settings: read-out: Activity
A549 [21] = assay: Induction of apoptosis in human A549 cells assessed as late apoptotic cells at 10 uM measured after 72 hrs by annexin V-FITC staining based flow cytometry (reference value: 0.20%); format: functional
A549 [22] = assay: Induction of apoptosis in human A549 cells assessed as late apoptotic cells at 30 uM measured after 72 hrs by annexin V-FITC staining based flow cytometry (reference value: 0.20%); format: functional
A549 [23] = assay: Induction of apoptosis in human A549 cells assessed as early apoptotic cells at 20 uM measured after 72 hrs by annexin V-FITC staining based flow cytometry (reference value: 0.13%); format: functional
A549 [24] = assay: Induction of apoptosis in human A549 cells assessed as necrotic cells at 20 uM measured after 72 hrs by annexin V-FITC staining based flow cytometry (reference value: 0.005%); format: functional
[25] = target: T2, von Hippel-Lindau disease tumor suppressor/Histone deacetylase 8 (Homo sapiens); assay: Protac activity at VHL/HDAC8 in human A549 cells assessed as degradation of HDAC8 by Western blot analysis; format: cell-based; settings: dose 0.1-10 µM
[26] = target: von Hippel-Lindau disease tumor suppressor/Histone deacetylase 2 (Homo sapiens) (UniProt Q92769+P40337); assay: Protac activity at VHL/HDAC2 in human A549 cells assessed as degradation of HDAC2 at 0.1 to 10 uM by Western blot analysis; format: cell-based; settings: dose 0.1-10 µM
von Hippel-Lindau disease tumor suppressor/Histone deacetylase 2 (Homo sapiens), sequence (P40337 whole entry, looked up): as the sequence (P40337 whole entry, looked up, one chain of several) above
von Hippel-Lindau disease tumor suppressor/Histone deacetylase 2 (Homo sapiens), sequence (Q92769 whole entry, looked up): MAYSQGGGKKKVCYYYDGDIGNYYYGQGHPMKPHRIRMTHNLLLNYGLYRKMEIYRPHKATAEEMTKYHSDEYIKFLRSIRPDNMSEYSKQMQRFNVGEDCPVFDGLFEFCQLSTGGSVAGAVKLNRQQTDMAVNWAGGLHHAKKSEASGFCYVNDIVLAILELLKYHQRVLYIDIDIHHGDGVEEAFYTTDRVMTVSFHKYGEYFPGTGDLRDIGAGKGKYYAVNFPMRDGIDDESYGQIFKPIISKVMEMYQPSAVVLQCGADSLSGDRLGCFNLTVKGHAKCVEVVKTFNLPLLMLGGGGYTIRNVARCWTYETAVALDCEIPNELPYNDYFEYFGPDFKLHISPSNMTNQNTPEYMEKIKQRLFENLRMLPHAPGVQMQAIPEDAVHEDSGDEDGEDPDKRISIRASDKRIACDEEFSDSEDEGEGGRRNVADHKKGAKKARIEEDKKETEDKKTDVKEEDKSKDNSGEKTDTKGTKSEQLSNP

HCT-116 = assay: Inhibition of colony formation in human HCT-116 cells assessed as reduction in cell proliferation at 2.5 to 10 uM measured after 7 to 10 days with media replenishment along with compound for every 3 days by crystal violet staining based analysis; format: functional; settings: dose 2.5-10 µM, time 7-10 day
[27] = target: von Hippel-Lindau disease tumor suppressor/Histone deacetylase 1 (Homo sapiens) (UniProt Q13547+P40337); assay: Protac activity at VHL/HDAC1 in human A549 cells assessed as degradation of HDAC1 at 0.1 to 10 uM by Western blot analysis; format: cell-based; settings: dose 0.1-10 µM
von Hippel-Lindau disease tumor suppressor/Histone deacetylase 1 (Homo sapiens), sequence (P40337 whole entry, looked up): as the sequence (P40337 whole entry, looked up, one chain of several) above
von Hippel-Lindau disease tumor suppressor/Histone deacetylase 1 (Homo sapiens), sequence (Q13547 whole entry, looked up): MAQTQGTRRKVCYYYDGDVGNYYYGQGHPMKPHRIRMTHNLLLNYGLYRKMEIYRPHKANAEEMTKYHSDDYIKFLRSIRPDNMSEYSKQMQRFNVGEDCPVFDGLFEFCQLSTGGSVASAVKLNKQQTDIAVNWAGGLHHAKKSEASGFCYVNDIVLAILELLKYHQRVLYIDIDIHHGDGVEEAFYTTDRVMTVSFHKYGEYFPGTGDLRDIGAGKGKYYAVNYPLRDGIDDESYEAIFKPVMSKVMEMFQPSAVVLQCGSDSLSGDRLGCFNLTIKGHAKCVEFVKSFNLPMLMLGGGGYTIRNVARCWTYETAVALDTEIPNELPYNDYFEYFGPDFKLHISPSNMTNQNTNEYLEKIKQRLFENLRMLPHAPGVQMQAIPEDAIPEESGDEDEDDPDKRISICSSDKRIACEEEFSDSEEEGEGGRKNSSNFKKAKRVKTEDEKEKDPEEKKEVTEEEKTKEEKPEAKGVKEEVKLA

[28] = target: von Hippel-Lindau disease tumor suppressor/Histone deacetylase 3 (Homo sapiens) (UniProt O15379+P40337); assay: Protac activity at VHL/HDAC3 in human A549 cells assessed as degradation of HDAC3 at 0.1 to 10 uM by Western blot analysis; format: cell-based; settings: dose 0.1-10 µM
von Hippel-Lindau disease tumor suppressor/Histone deacetylase 3 (Homo sapiens), sequence (O15379 whole entry, looked up): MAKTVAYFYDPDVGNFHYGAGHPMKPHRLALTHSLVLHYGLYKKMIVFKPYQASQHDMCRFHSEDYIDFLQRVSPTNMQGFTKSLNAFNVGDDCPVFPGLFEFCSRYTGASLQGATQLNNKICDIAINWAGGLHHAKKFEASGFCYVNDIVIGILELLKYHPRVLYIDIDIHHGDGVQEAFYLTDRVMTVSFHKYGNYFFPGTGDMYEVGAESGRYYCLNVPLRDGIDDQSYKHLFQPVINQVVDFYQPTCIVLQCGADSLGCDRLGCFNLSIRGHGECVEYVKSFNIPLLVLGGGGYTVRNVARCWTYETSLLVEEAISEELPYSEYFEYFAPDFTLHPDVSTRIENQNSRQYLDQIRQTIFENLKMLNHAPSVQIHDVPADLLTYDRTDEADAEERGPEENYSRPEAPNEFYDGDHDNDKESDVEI
von Hippel-Lindau disease tumor suppressor/Histone deacetylase 3 (Homo sapiens), sequence (P40337 whole entry, looked up): as the sequence (P40337 whole entry, looked up, one chain of several) above

A549 [29] = assay: Inhibition of colony formation in human A549 cells assessed as reduction in cell proliferation at 2.5 to 10 uM measured after 7 to 10 days with media replenishment along with compound for every 3 days by crystal violet staining based analysis; format: functional; settings: dose 2.5-10 µM, time 7-10 day
[30] = target: T3, Histone deacetylase 8 (Homo sapiens); assay: Induction of degradation in HDAC8 in human A549 cells at 10 uM incubated for 2 hrs by Western blot analysis; format: cell-based

SMILES: COc1ccc(Cn2ccc3ccc(C(=O)NO)cc32)cc1
Activity (A549 [5]): 9.71%
viability at 30 µM (A549 [6]): 24.6%
Activity (A549 [7]): 24.9%
IC50 (A549 [8]): 13.1 µM
Activity (A549 [9]): 42%
viability at 20 µM (A549 [10]): 29%
Activity (A549 [11]): 63%
Activity [12]: 5%
Activity (A549 [13]): 46.3%
IC50 (A549 [14]): 15.8 µM
Activity (A549 [15]): 1.21%
Activity (A549 [16]): 0.7%
Activity (A549 [17]): 0.47%
viability at 10 µM (A549 [18]): 45.6%
Activity [19]: 3.6%
viability at 40 µM (A549 [20]): 28.6%
Activity (A549 [21]): 11.7%
Activity (A549 [22]): 12%
Activity (A549 [23]): 50.7%
Activity (A549 [24]): 0.67%

SMILES: Cc1ncsc1-c1ccc([C@H](C)NC(=O)[C@@H]2C[C@@H](O)CN2C(=O)[C@@H](NC(=O)CCCCOc2ccc(Cn3ccc4ccc(C(=O)NO)cc43)cc2)C(C)(C)C)cc1
Activity [3]: 34.6%
Activity [4]: 75.7%

SMILES: O=C1CCC(N2C(=O)c3cccc(NCCc4cn(CCOCCOc5ccc(Cn6ccc7ccc(C(=O)NO)cc76)cc5)nn4)c3C2=O)C(=O)N1 (stereo not given)
Activity [1]: 71.2%
Activity [2]: 29.4%

SMILES: Nc1cccc2c1C(=O)N(C1CCC(=O)NC1=O)C2=O (stereo not given)
Activity [12]: 12.8%
Activity [30]: inactive
Activity [19]: 9.5%

Second part, led by results:

Activity [1]: 80.2%
Activity [2]: 39.4%
SMILES: O=C1CCC(N2C(=O)c3cccc(NCc4cn(CCOCCOCCOCCOCCOc5ccc(Cn6ccc7ccc(C(=O)NO)cc76)cc5)nn4)c3C2=O)C(=O)N1 (stereo not given)

Activity [3]: 29.8%
Activity [4]: 73.6%
SMILES: Cc1ncsc1-c1ccc([C@H](C)NC(=O)[C@@H]2C[C@@H](O)CN2C(=O)[C@@H](NC(=O)CCCCCCOc2ccc(Cn3ccc4ccc(C(=O)NO)cc43)cc2)C(C)(C)C)cc1

Activity [3]: 27.3%
Activity [4]: 51.4%
SMILES: Cc1ncsc1-c1ccc([C@H](C)NC(=O)[C@@H]2C[C@@H](O)CN2C(=O)[C@@H](NC(=O)CCCCCOc2ccc(Cn3ccc4ccc(C(=O)NO)cc43)cc2)C(C)(C)C)cc1

Activity [3]: 26.7%
Activity [4]: 50.2%
SMILES: Cc1ncsc1-c1ccc([C@H](C)NC(=O)[C@@H]2C[C@@H](O)CN2C(=O)[C@@H](NC(=O)COCCOCCOCCOc2ccc(Cn3ccc4ccc(C(=O)NO)cc43)cc2)C(C)(C)C)cc1

Activity [25]: Active
Activity [26]: inactive
Activity [3]: 45.7%
Activity [4]: 91.3%
Activity [27]: inactive
Activity [28]: inactive
SMILES: Cc1ncsc1-c1ccc([C@H](C)NC(=O)[C@@H]2C[C@@H](O)CN2C(=O)[C@@H](NC(=O)COCCOc2ccc(Cn3ccc4ccc(C(=O)NO)cc43)cc2)C(C)(C)C)cc1
inhibition (HCT-116): Active
inhibition (A549 [29]): Active

Activity [1]: 70.8%
Activity [2]: 42.5%
SMILES: O=C1CCC(N2C(=O)c3cccc(NCc4cn(CCOCCOCCOc5ccc(Cn6ccc7ccc(C(=O)NO)cc76)cc5)nn4)c3C2=O)C(=O)N1 (stereo not given)
